Data on one compound can be found in patent US20090111736A1, “Orally-Absorbed Solid Dose Formulation for Vancomycin” (SRI International, priority 2007, published 2009).

This series in a line: In vitro mucosal-to-serosal vancomycin transport, modified Ussing chambers, jejunum. Format: in vitro ADME, rat. The note with it: male, rat. The source says: We investigated regional variation in permeation of vancomycin (VCM) across various segments of rat intestine and colon in vitro by mounting isolated segments of rat intestine and colon between horizontal modified Ussing chambers. The effects of drug concentration and of addition of a p-glycoprotein inhibitor or permeation enhancer(s) as formulation additives on VCM permeation were also studied in vitro using segments of rat jejunum.
Methods: A modified Ussing system (Easy mount Ussing system, Physiological Instruments Inc., CA, Item # EM-CSYS-8) with eight sets of chambers was used for all in vitro studies; each set consisted of two parallel diffusion chambers, a heating block for temperature control, needle valves for gas flow adjustment and gas mixing, and Ag/AgCl voltage and current electrodes for measuring transepithelial voltage and for passing current.
Harvesting of required small intestinal or colon segments of a male rat was performed using experimental procedures described in the literature (Gotoh et al., J Biomol Screen (2005) 10:517-23). The harvested segments of small intestine or colon were mounted on sliders placed between the two horizontal chambers of a modified Ussing system.
VCM was dissolved in HEPES buffer pH 7.4 (Table 1) previously saturated with 100% O2 or HEPES buffer containing additives selected from permeation enhancer(s) and/or an efflux transport inhibitor (Table 2) to obtain predetermined concentrations of drug and additive(s).
Drug transport across epithelial membranes of harvested rat small intestine and colon segments, in mucosal-to-serosal (M-to-S) direction, was studied using modified Ussing Chambers. Aliquots of HEPES buffer (5 ml) were initially added to both the mucosal and serosal chambers and allowed to equilibrate for 20 minutes. The HEPES buffer in the mucosal chamber was replaced by a study sample containing VCM alone or VCM and selected additive(s) in HEPES buffer, e.g., 5 mg/mL of VCM dissolved in HEPES buffer containing 10% w/w Labrasol®. Aliquots of 0.5 mL buffer solutions were removed periodically from serosal chambers, and replaced with equal volumes of fresh warm (37±2° C.) HEPES buffer previously saturated with 100% O2. […]
Changes in transepithelial short-circuit current (in micro-Amps) and membrane resistance (in Ohms) as a function of time were monitored continuously during in vitro studies to serve as indicators of tissue viability and drug permeability, respectively. The buffer samples from the receptor chambers were analyzed for VCM content on a high pressure liquid chromatograph (HPLC; Hewlett Packard Model 1100 series).
The analysis of VCM samples was performed using a reverse phase gradient HPLC method, with a Hypersil BDS C18 column, 5 μm, 150×4.6 mm., mobile phase consisting of 5 mM potassium phosphate monobasic in water (pH 3) as solvent A and acetonitrile as solvent B at a flow rate of 1 ml/min (Farin et al., J Pharm Biomed Anal (1998) 18:367-72). The eluant was monitored by a UV/diode array detector at 280 nm.
To compare data obtained from different in vitro experiments, the apparent permeability coefficients were calculated using the equation: […]
Where dQ/dt is the linear appearance rate of mass in receiver compartment, C0 is the initial solute concentration in donor compartment, and A is the surface area (Luo et al., Drug Metab Dispos (2002) 30:763-70).

Where a name gives a salt, the structure may show the parent alone.

With `CN[C@H](CC(C)C)C(=O)N[C@H]1C(=O)N[C@@H](CC(N)=O)C(=O)N[C@H]2C(=O)N[C@H]3C(=O)N[C@H](C(=O)N[C@H](C(=O)O)c4cc(O)cc(O)c4-c4cc3ccc4O)[C@H](O)c3ccc(c(Cl)c3)Oc3cc2cc(c3O[C@@H]2O[C@H](CO)[C@@H](O)[C@H](O)[C@H]2O[C@H]2C[C@](C)(N)[C@H](O)[C@H](C)O2)Oc2ccc(cc2Cl)[C@H]1O` [Vancomycin hydrochloride], the Papp at 2.5 hr, 5 mg/ml is, setting by setting: (pH 7.4, 5 mg/ml, HEPES buffer alone, jejunum) 0.62 ± 0.07 ×10⁻⁶ cm/s; (pH 7.4, with quinidine 0.15 mM in the mucosal chamber, 5 mg/ml, jejunum, 0.15 mM Quinidine in mucosal chamber) 0.79 ± 0.08 ×10⁻⁶ cm/s; (pH 7.4, with quinidine 0.15 mM in the serosal chamber, 5 mg/ml, jejunum, 0.15 mM Quinidine in serosal chamber) 2.06 ± 0.16 ×10⁻⁶ cm/s. Further, the Papp at 5 mg/ml is 1.74 ± 0.1 ×10⁻⁶ cm/s (pH 7.4, 5 mg/ml, jejunum, 1.0 mM sodium decanoate in mucosal chamber); 0.6 ± 0.02 ×10⁻⁶ cm/s (pH 7.4, 5 mg/ml, jejunum, 1.0 mM sodium decanoate in serosal chamber); 0.78 ± 0.03 ×10⁻⁶ cm/s (pH 7.4, 5 mg/ml, jejunum, HEPES buffer containing 5% w/w Gelucire ® 44/14); 0.71 ± 0.03 ×10⁻⁶ cm/s (pH 7.4, 5 mg/ml, jejunum, HEPES buffer containing 5% w/w Gelucire ® 44/14 + 5% w/w Labrasol ®); 0.88 ± 0.09 ×10⁻⁶ cm/s (pH 7.4, 5 mg/ml, jejunum, HEPES buffer containing 5% w/w Polysorbate-80); 0.53 ± 0.06 ×10⁻⁶ cm/s (pH 7.4, 5 mg/ml, jejunum, HEPES buffer containing 5% w/w Polysorbate-80 + 5% w/w Labrasol ®). The Papp at 5 mg/ml is, setting by setting: (pH 7.4, 5 mg/ml, jejunum, HEPES buffer containing 5% w/w Vitamin E TPGS + 5% w/w Labrasol ®) 0.56 ± 0.06 ×10⁻⁶ cm/s; (pH 7.4, 5 mg/ml, jejunum, HEPES buffer containing 10% w/w Labrasol ®) 0.36 ± 0.06 ×10⁻⁶ cm/s; (pH 7.4, 5 mg/ml, jejunum, HEPES buffer containing 20% w/w Bile salts) 3.67 ± 0.58 ×10⁻⁶ cm/s. Moreover, for the setting “pH 7.4, 10 mg/mL, HEPES buffer alone, jejunum”, the apparent permeability (Papp) at 2.5 hr, 10 mg/mL was determined as 0.57 ± 0.13 ×10⁻⁶ cm/s. The compound further gave a Papp at 2.5 hr, 25 mg/mL (pH 7.4, 25 mg/mL, HEPES buffer alone, jejunum) of 0.54 ± 0.69 ×10⁻⁶ cm/s. Moreover, the Papp at 2.5 hr, 50 mg/mL (pH 7.4, 50 mg/mL, HEPES buffer alone, jejunum) turned out to be 0.39 ± 0.47 ×10⁻⁶ cm/s. For the same compound, the Papp at 2.5 hr, 5 mg/mL (pH 7.4, jejunum, in the presence of 10% w/w Labrasol®) turned out to be 0.36 ×10⁻⁶ cm/s.
